Laboratory results: US20150353626A1, “APOLIPOPROTEIN A-I DERIVED PEPTIDES FOR TREATMENT OF HYPERGLYCAEMIA” (priority 2013, published 2015)

What was measured:
Type in all cases: cell-based
[1] = system: Akt; experiment: Western blot for phosphorylated Akt in L6 myotube lysates; settings: L6 myotubes, 60 minutes
Experimental: Prior to stimulation or treatment cultured myoblast cells were serum starved for 4 hours in serum-free α-MEM and all subsequent treatments, including insulin or phenformin as positive controls (Sigma), were performed in serum free a-MEM. After treatments, cells were washed with ice cold PBS buffer and lysed on ice using a non-denaturing lysis buffer (1% Triton X-100, 50 mmol/l Tris, 150 mmol/l NaCl, pH 8.0) containing protease and phosphatase inhibitors (Roche). Lysates were centrifuged at 16,000×g, 20 minutes at 4° C. and BCA protein assay (Pierce) was performed on supernatants. Equal protein amounts were separated by SDS-PAGE and transferred to nitrocellulose membranes. pAMPK, AMPK, pACC, pAkt, Akt and tubulin were used for immunodetection with IRDye 800CW and 680RD secondary antibodies (LI-COR). Blots were imaged using the Odyssey Fc system and quantified using Image studio v2.0 software.
To dissect the effect of discoidal rHDL on a non-insulin dependent signaling pathway, we conducted western blotting using lysates from L6 myotubes incubated with rHDL. […] Phenformin was used as a positive control, inducing a 1.98±0.33-fold (p=≦0.05) and 2.7±0.74-fold (p=≦0.05) elevation of phosphorylated AMPK and ACC, respectively, at a concentration of 0.4 mmol/l. […] For clarity 1 nmol/l insulin (n=2) and 100 nmol/l insulin (n=3) (51±12.5-fold; p=≦0.01) was plotted in FIG. 3e. Representative immunoblots of those quantified for FIGS. 3a, c and f are given in FIGS. 3b, d and e, respectively.
The effect of the peptide fragment 190-243 of human Apo A-I (SEQ ID NO: 1) on a non-insulin dependent signaling pathway, was tested using lysates from L6 myotubes as described above for rHDL. Myotubes were serum starved for 4 hours then treated for 60 minutes with 2, 10 or 20 μmol/l of 190-243 peptide, 1 mmol/l phenformin, 100 nmol/l insulin, or control (C) followed by western blot analysis for phosphorylated AMPK (AMP-activated protein kinase) or phosphorylated Akt. Tubulin was used as loading control. Blots shown are representative of three independent experiments.

[2] = system: L6 myotubes; experiment: Glucose uptake in L6 myotubes (2-[3H]-deoxy-D-glucose)
Experimental: L6 myoblasts (ATCC #CRL-1458) were grown in α-MEM (Invitrogen) supplemented with 10% FBS (Sigma) and 1% antibiotic/antimycotic (Penicillin, streptomycin, amphotericin B; Invitrogen). Differentiation to myotubes was achieved by switching from growth media to 2% FBS a-MEM for 6-7 or 6-12 days. Cells were maintained at 37° C. and 5% CO2.
Prior to stimulation (or treatment) cells were starved for 2 hours in serum-free a-MEM and all subsequent treatments, which were performed in triplicate and included cytochalasin B (Sigma) as a measure of cell associated non-specific radioactivity, were performed in uptake buffer (140 mmol/l NaCl, 20 mmol/l HEPES, 5 mmol/l KCl, 2.5 mmol/l MgSO4, 1 mmol/l CaCl2, pH 7.4). After stimulation, treatments were replaced with 10 μmol/l 2-deoxy-D-glucose (Sigma), 10 μmol/l 2-[3H]-deoxy-D-glucose (Perkin Elmer) in uptake buffer for 15 mins at room temperature. Cells were then washed twice with ice cold PBS and lysed with 1 mol/l NaOH on ice. Lysates were collected and radioactivity quantified by scintillation counting.
In order to investigate the effect of discodial HDL (rHDL) on GLUT4 translocation and glucose uptake, we produced recombinant human apoA-I and reconstituted HDL needed for cell incubations. L6 myotubes were incubated with 50 μg/ml (1.6 μmol/l) apoA-I for 1 hour followed by a glucose uptake assay as described above. […] Next, L6 myotubes were treated by incubation with 50 μg/ml discodial rHDL (expressed as total concentration of apoA-I in rHDL, given 2 apoA-I molecules per particle) for 1 hour. […] This experiment was thereafter repeated in more controlled manner including cell number and quality (cells were similarly treated during differentiation from myoblasts to multinuclear myotubes, with respect to the time between splitting cells, cell density, passage of cells used.) (FIG. 7c).
The relative effect of specific regions of apoA-I to increase glucose uptake was investigated using truncated protein fragments corresponding to residues 1-189 (N-terminal/central domain), 44-189 (central domain), 44-243 (central/C-terminal domain) and 190-243 (C-terminal domain) of full-length apoA-I (FIG. 4a). The treatments with incubation of truncated protein fragments were performed as described above for treatment of L6 myotubes with full-length apoA-I and followed by a glucose uptake assay as described above.
To test for the contribution of the constituent phospholipid to rHDL-induced glucose uptake in L6 myotubes, rHDL made with DMPC was also produced and compared to 100 nm DMPC vesicles containing no apoA-I protein. Stable 100 nm diameter vesicles can be synthesized with DMPC in the absence of apoA-I and was therefore used as a phospholipid control. The effect on the glucose uptake was tested as described above. […] To also test for the contribution of the constituent POPC phospholipid to rHDL-induced glucose uptake, rHDL made with POPC was compared with 100 nm POPC vesicles containing no apoA-I protein.

[3] = system: rat adipocytes; experiment: Glucose uptake in isolated rat adipocytes; settings: insulin 100 nmol/l, 190-243 fragment 30 μg/ml, FIG. 9b
Experimental: Adipose cells were prepared as previously described (Rodbell (1964) J Biol Chem. 239: 375-80). In brief, epidydymal fat pads were minced and digested in Krebs-Ringer-bicarbonate-HEPES (KRBH) buffer, pH 7.4, containing 10 mM sodium bicarbonate, 30 mM HEPES, 200 nM adenosine, 1% bovine serum albumin (BSA) with 1 mg/ml collagenase. After digestion, the cells were filtered through nylon mesh (250 μm) and washed with KRBH-buffer.
Isolated rat adipocytes were treated for 60 min with insulin (100 nmol/l), 190-243 polypeptide fragment (having the amino acid sequence consisting of SEQ ID NO:1) (30 μg/ml) or 1-243 human apoA-I protein (150 μg/ml) followed by glucose uptake measurement by addition of UC14 tracer glucose (Perkin Elmer) (30 min). The uptake was terminated by centrifugation through dinonyl phtalate oil. Incubation with Cytochalasin B was used to subtract unspecific background binding. Amount of glucose was detected as count radioactivity measured by Beta CounterThe amount of glucose transported was measured using an isotope labeled UC14-assay.

Substance	Akt phosphorylation (in words) ([1]; 2, 10 or 20 μmol/l 190-243 peptide, FIG. 8c)	glucose uptake, fold change versus control ([2]; apoA-I fragment, 60 minutes, FIGS. 4b and 8b) [fold]	glucose uptake in adipocytes (in words) [3]	Akt phosphorylation ([1]; insulin 100 nmol/l) [fold]	Akt phosphorylation ([1]; rHDL 700 μg/ml apoA-I, insulin 1 nmol/l, ± S.D.) [fold]	glucose uptake over basal/Control, repeated experiment ([2]; 2 μmol/l (60 μg/ml) POPC rHDL or 100 nmol/l insulin, 60 minutes, FIG. 7c) [fold]	glucose uptake over basal ([2]; 50 μg/ml rHDL (as apoA-I) or 100 nmol/l insulin, 1 hour, FIG. 1c, rHDL p=0.095) [fold]	increased glucose uptake ([2]; 2 h serum starved, 50 μg/ml (1.6 μmol/l) apoA-I or 100 nmol/l insulin, 1 hour, FIG. 1b) [fold]
190-243 polypeptide fragment: polypeptide fragment consisting of amino acids 190-243 of the full-length human apoA-I protein, C-terminal domain, 54-mer, recombinant (AEYHAKATEHLSTLSEKAKPALEDLRQGLLPVLESFKVSFLSALEEYTKKLNTQ; listed as Homo Sapiens)	unaffected	1.77±0.23	significantly induced	–	–	–	–	–
insulin	–	–	significantly induced	51±12.5	2.06±0.47	2.4±1.0	2.4±1.0	2
